Source: patent US20260235604A1, “A NOVEL MARKER FOR CARDIOMYOCYTES DEDIFFERENTIATION” (National University of Singapore, priority 2023, published 2026)

B1: L-asparaginase (protein, UniProt P00805 23-348, looked up)
L-asparaginase 2: LPNITILATGGTIAGGGDSATKSNYTVGKVGVENLVNAVPQLKDIANVKGEQVVNIGSQDMNDNVWLTLAKKINTDCDKTDGFVITHGTDTMEETAYFLDLTVKCDKPVVMVGAMRPSTSMSADGPFNLYNAVVTAADKASANRGVLVVMNDTVLDGRDVTKTNTTDVATFKSVNYGPLGYIHNGKIDYQRTPARKHTSDTPFDVSKLNELPKVGIVYNYANASDLPAKALVDAGYDGIVSAGVGNGNLYKSVFDTLATAAKTGTAVVRSSRVPTGATTQDAEVDDAKYGFVASGTLNPQKARVLLQLALTQTKDPQQIQQIFNQY

Legend:
Type in all cases: cell-based, mouse
mTORC1 = experiment: Western blot of GLUL, p-S6K1, p-4EBP1 in cultured ACMs with Asns KD; conditions: Asn treatment of D4 Asns^KD ACMs
Protocol: Protein extraction was carried out using 6 M urea lysis buffer with 1 mM dithiothreitol, protease inhibitor and phosphatase inhibitor. For protein extraction from cultured ACMs and purified CMs, lysis buffer was added directly to the cells, followed by vigorous pipetting. For protein extraction from mouse heart apex, a piece of apex tissue resected from each mouse heart was weighted and submerged in 500 μL lysis buffer in a 2 mL Sarstedt tube. One single stainless-steel bead (diameter 5 mm) was added to each tube containing apex tissue in lysis buffer. The TissueLyser II was assembled as per manufacturer's guidelines with pre-chilled adapters. The apex tissue was homogenised for 20 s at 30 Hz for two rounds, until no visible tissue debris was observed. Protein quantification was done using Bio-Rad Protein Assay Kit I as per manufacturer's guidelines.
The protein lysate with loading buffer was heated at 60° C. for 10 mins before loading onto a 10% SDS-polyacrylamide gel. After transfer, the blotting membrane was blocked in 5% blotting-grade blocker in TBST for 1 hour, followed by primary antibody incubation at 4° C. overnight and secondary antibody incubation at room temperature (R.T.) for 1 hour. The blot was detected by ECL substrate reaction and exposure on a ChemiDoc™ touch imaging system (BioRad). The quantification of protein expression level was performed using Fiji software. […]

cultured ACMs [1] = experiment: Propidium iodide (PI) staining of cultured ACMs (CM death); conditions: eliminating Asn in cultured ACMs
Protocol: Purified CMs were either directly lysed for RNA and protein extraction, or pre-plated on uncoated cell culture dishes for 1 hour to further remove non-CMs before culture on laminin-coated cell culture plates. During the first two days of culturing (D0 and D1), 1 µM of blebbistatin (Sigma-Aldrich) was added as a specific myosin II inhibitor (see Kabaeva Z et al., 2008). Starting from D2, blebbistatin was removed to accelerate morphological changes of CMs. 10% FBS was included in the culture media during the whole culture procedure, and the small colonies of non-CMs were carefully scraped under a microscope and washed away daily. Images of CMs were captured using the EVOS® FL Cell Imaging System (Thermo Fisher) under different channels. PI (final concentration 1 μg/mL) and Hoechst (final concentration 1 μg/mL) was added at a to cultured ACMs, and incubated at 37° C. for 45 mins. The ACMs were immediately imaged by Nikon inverted microscope Eclipse Ti-E. For each well in the cell cultured dishes, 8 to 9 random regions were imaged. PI+ CMs were quantified using Fiji software.

cultured ACMs [2] = experiment: RT-qPCR of cell cycle genes in cultured ACMs
Protocol: For freshly isolated mouse CMs, a total number of about 120,000 CMs (⅛ of total CMs) per heart were lysed by 1 mL TRIzol™ Reagent. To lyse cultured CMs, 1 mL TRIzol™ Reagent was added to each well in 12-well and 6-well cell culture plates. Total RNA extraction was performed as per manufacturer's protocol.
cDNA was synthesised with oligo dT and random primers using the qScript™ cDNA Synthesis Kit. qPCR was performed with PerfeCTa® Low Rox™ ToughMix™ (Quantabio) on a real-time PCR system. All qPCR data were normalised to the expression of housekeeping genes Gapdh and Rplp0.

| Molecule | p-4EBP1 (mTORC1) | p-S6K1 (mTORC1) | cell death (cultured ACMs [1]) | expression of cell cycle genes (Cdk1, Mki67, Aukrb) (cultured ACMs [2]) |
| --- | --- | --- | --- | --- |
| NC(=O)C[C@H](N)C(=O)O [Asn, asparagine] | restored | promoted | – | – |
| B1 | – | – | did not induce more cell death | diminished |
